Biological target: T1, Recombinant human HSP90a (Homo sapiens, UniProt P07900)
T1 construct: host or cells: E. coli
Assay: HSP90 radioligand filter binding test ([3H]17AAG competition)
Conditions: [3H]17AAG 0.08 μM, HSP90 1.5 μg/assay, 22° C., 30 min; read-out: IC50 (HSP90 inhibition)
Text: Test Method for the Measurement of HSP90 Inhibitors
The binding of geldanamycin or 17-allylamino-17-demethoxygeldanamycin (17AAG) to HSP90 and competitive inhibition thereof can be utilised in order to determine the inhibitory activity of the compounds according to the invention (Carreras et al. 2003, Chiosis et al. 2002).
In the specific case, a radioligand filter binding test is used. The radioligand used here is tritium-labelled 17-allylaminogeldanamycin, [3H]17AAG. This filter binding test allows a targeted search for inhibitors which interfere with the ATP binding site.
Recombinant human HSP90a (E. coli expressed, 95% purity);
[3H]17AAG (17-allylaminogeldanamycin, [allylamino-2,3-^3H. Specific activity: 1.11×10^12 Bq/mmol (Moravek, MT-1717);
HEPES filter buffer (50 mM HEPES, pH 7.0, 5 mM MgCl2, BSA 0.01%)
Multiscreen FB (1 μm) filter plate (Millipore, MAFBNOB 50).
The 96-well microtitre filter plates are firstly irrigated and coated with 0.1% of polyethylenimine.
The test is carried out under the following conditions:
Reaction temperature 22° C.
Reaction time: 30 min., shaking at 800 rpm
50 mM HEPES HCl, pH 7.0, 5 mM MgCl2, 0.01% (w/v) of BSA
At the end of the reaction, the supernatant in the filter plate is removed by suction with the aid of a vacuum manifold (Multiscreen Separation System, Millipore), and the filter is washed twice.
The filter plates are then measured in a beta counter (Microbeta, Wallac) with scintillator (Microscint 20, Packard).
“% of control” is determined from the “counts per minutes” values, and the IC-50 value of a compound is calculated therefrom.

Row | Compound | IC50
1 | Nc1nc(C(=O)N2Cc3ccccc3C2)c2cc(-c3ccccc3S(=O)(=O)NC3CCC3)ccc2n1 [Compound A51, 2-[2-Amino-4-(1,3-dihydroisoindole-2-carbonyl)quinazolin-6-yl]-N-cyclobutylbenzenesulfonamide] | 10 to 1000 nM
2 | Nc1nc(C(=O)N2Cc3ccccc3C2)c2cc(-c3ccccc3S(=O)(=O)N3CCC(CO)C3)ccc2n1 (centres unmarked) [Compound A21, {2-Amino-6-[2-(3-hydroxymethylpyrrolidine-1-sulfonyl)phenyl]quinazolin-4-yl}-(1,3-dihydroisoindol-2-yl)methanone] | 10 to 1000 nM
3 | Nc1nc(C(=O)N2Cc3ccccc3C2)c2cc(-c3ccccc3S(=O)(=O)N3CCC(F)(F)C3)ccc2n1 [Compound A53, {2-Amino-6-[2-(3,3-difluoropyrrolidine-1-sulfonyl)phenyl]quinazolin-4-yl}-(1,3-dihydroisoindol-2-yl)methanone] | 10 to 1000 nM
4 | CN(C)S(=O)(=O)c1ccccc1-c1ccc2nc(N)nc(C(=O)N3Cc4ccccc4C3)c2c1 [Compound A4] | 10 to 1000 nM
5 | CN(C(C)(C)C)S(=O)(=O)c1ccccc1-c1ccc2nc(N)nc(C(=O)N3Cc4ccccc4C3)c2c1 [Compound A59, 2-[2-Amino-4-(1,3-dihydroisoindole-2-carbonyl)quinazolin-6-yl]-N-tert-butyl-N-methylbenzenesulfonamide] | 10 to 1000 nM
6 | Nc1nc(C(=O)N2Cc3ccccc3C2)c2cc(-c3ccccc3C(=O)N3CCCC3C(=O)O)ccc2n1 (centres unmarked) [Compound A44, 1-{2-[2-Amino-4-(1,3-dihydroisoindole-2-carbonyl)quinazolin-6-yl]-benzoyl}pyrrolidine-2-carboxylic acid] | 10 to 1000 nM
7 | CCN(CCO)C(=O)c1cc(F)c(F)cc1-c1ccc2nc(N)nc(C(=O)N3Cc4ccccc4C3)c2c1 [Compound A75, 2-[2-Amino-4-(1,3-dihydroisoindole-2-carbonyl)quinazolin-6-yl]-N-ethyl-4,5-difluoro-N-(2-hydroxyethyl)benzamide] | 10 to 1000 nM
8 | C[N+]1([O-])CCN(S(=O)(=O)c2ccccc2-c2ccc3nc(N)nc(C(=O)N4Cc5ccccc5C4)c3c2)CC1 [Compound A7] | 10 to 1000 nM
9 | CN(C1CC1)S(=O)(=O)c1ccccc1-c1ccc2nc(N)nc(C(=O)N3Cc4ccccc4C3)c2c1 [Compound A65, 2-[2-amino-4-(1,3-dihydroisoindole-2-carbonyl)quinazolin-6-yl]-N-cyclopropyl-N-methylbenzenesulfonamide] | 10 to 1000 nM
10 | C[C@@H]1CCCN1S(=O)(=O)c1ccccc1-c1ccc2nc(N)nc(C(=O)N3Cc4ccccc4C3)c2c1 [Compound A66, {2-Amino-6-[2-((R)-2-methylpyrrolidine-1-sulfonyl)phenyl]quinazolin-4-yl}-(1,3-dihydroisoindol-2-yl)methanone] | 10 to 1000 nM
11 | CCN(CCN(C)C)C(=O)c1cc(F)c(F)cc1-c1ccc2nc(N)nc(C(=O)N3Cc4ccccc4C3)c2c1 [Compound A76, 2-[2-Amino-4-(1,3-dihydroisoindole-2-carbonyl)quinazolin-6-yl]-N-(2-dimethylaminoethyl)-N-ethyl-4,5-difluorobenzamide] | 10 to 1000 nM
12 | CCN(CCN(C)C)C(=O)c1ccccc1-c1ccc2nc(N)nc(C(=O)N3Cc4ccccc4C3)c2c1 [Compound A55] | 10 to 1000 nM
13 | CCN(CC)C(=O)c1ccccc1-c1ccc2nc(N)nc(C(=O)N3Cc4ccccc4C3)c2c1 [Compound A40, 2-[2-Amino-4-(1,3-dihydroisoindole-2-carbonyl)quinazolin-6-yl]-N,N-diethylbenzamide] | 10 to 1000 nM
14 | CNS(=O)(=O)c1ccccc1-c1ccc2nc(N)nc(C(=O)N3Cc4ccccc4C3)c2c1 [Compound A6, 2-[2-Amino-4-(1,3-dihydroisoindole-2-carbonyl)quinazolin-6-yl]-N-methylbenzenesulfonamide] | 10 to 1000 nM
15 | CCN(CC)S(=O)(=O)c1ccccc1-c1ccc2nc(N)nc(C(=O)N3Cc4ccccc4C3)c2c1 [Compound A45, 2-[2-Amino-4-(1,3-dihydroisoindole-2-carbonyl)quinazolin-6-yl]-N,N-diethylbenzenesulfonamide] | 10 to 1000 nM
16 | NCC(=O)OC1CCN(S(=O)(=O)c2ccccc2-c2ccc3nc(N)nc(C(=O)N4Cc5ccccc5C4)c3c2)CC1 [Compound A10, 1-{2-[2-amino-4-(1,3-dihydroisoindole-2-carbonyl)quinazolin-6-yl]benzenesulfonyl}piperidin-4-yl aminoacetate] | 10 to 1000 nM
17 | Nc1nc(C(=O)N2Cc3ccccc3C2)c2cc(-c3ccccc3S(=O)(=O)n3ccnc3)ccc2n1 [Compound A27, {2-Amino-6-[2-(imidazole-1-sulfonyl)phenyl]quinazolin-4-yl}-(1,3-dihydroisoindol-2-yl)methanone] | 1000 to 10000 nM
18 | CCN(C)C(=O)c1ccccc1-c1ccc2nc(N)nc(C(=O)N3Cc4ccccc4C3)c2c1 [Compound A39] | 10 to 1000 nM
19 | NCCNS(=O)(=O)c1ccccc1-c1ccc2nc(N)nc(C(=O)N3Cc4ccccc4C3)c2c1 [Compound A14, 2-[2-Amino-4-(1,3-dihydroisoindole-2-carbonyl)quinazolin-6-yl]-N-(2-aminoethyl)benzenesulfonamide] | 10 to 1000 nM
20 | CCN(CC)C(=O)c1cc(OC)c(OC)cc1-c1ccc2nc(N)nc(C(=O)N3Cc4ccccc4C3)c2c1 [Compound A88, 2-[2-Amino-4-(1,3-dihydroisoindole-2-carbonyl)quinazolin-6-yl]-N,N-diethyl-4,5-dimethoxybenzamide] | 1000 to 10000 nM
21 | CCNC(=O)c1cc(OC)c(OC)cc1-c1ccc2nc(N)nc(C(=O)N3Cc4ccccc4C3)c2c1 [Compound A84, 2-[2-Amino-4-(1,3-dihydroisoindole-2-carbonyl)quinazolin-6-yl]-N-ethyl-4,5-dimethoxybenzamide] | > 10000 nM
22 | C[C@@H]1CCCN1C(=O)c1ccccc1-c1ccc2nc(N)nc(C(=O)N3Cc4ccccc4C3)c2c1 [Compound A63] | 10 to 1000 nM
23 | CCN(CC)C(=O)c1ccc(Cl)cc1-c1ccc2nc(N)nc(C(=O)N3Cc4ccccc4C3)c2c1 [Compound A87, 2-[2-Amino-4-(1,3-dihydroisoindole-2-carbonyl)quinazolin-6-yl]-4-chloro-N,N-diethylbenzamide] | 10 to 1000 nM

More lines, now with the values ahead:

Row | IC50 | Compound
24 | 10 to 1000 nM | CNCCNS(=O)(=O)c1ccccc1-c1ccc2nc(N)nc(C(=O)N3Cc4ccccc4C3)c2c1 [Compound A16, 2-[2-amino-4-(1,3-dihydroisoindole-2-carbonyl)quinazolin-6-yl]-N-(2-methylaminoethyl)benzenesulfonamide]
25 | 10 to 1000 nM | CC(C)(C)NC(=O)c1ccccc1-c1ccc2nc(N)nc(C(=O)N3Cc4ccccc4C3)c2c1 [Compound A47, 2-[2-Amino-4-(1,3-dihydroisoindole-2-carbonyl)quinazolin-6-yl]-N-tert-butylbenzamide]
26 | 10 to 1000 nM | Nc1nc(C(=O)N2Cc3ccccc3C2)c2cc(-c3cc(F)c(F)cc3C(=O)N3CCC3)ccc2n1 [Compound A80, {2-Amino-6-[2-(azetidine-1-carbonyl)-4,5-difluorophenyl]quinazolin-4-yl}-(1,3-dihydroisoindol-2-yl)methanone]
27 | 10 to 1000 nM | Nc1nc(C(=O)N2Cc3ccccc3C2)c2cc(-c3ccccc3C(=O)N3CCC(O)C3)ccc2n1 (centres unmarked) [Compound A36]
28 | 10 to 1000 nM | CC1CCCN1S(=O)(=O)c1ccccc1-c1ccc2nc(N)nc(C(=O)N3Cc4ccccc4C3)c2c1 (centres unmarked) [Compound A19, {2-Amino-6-[2-(2-methylpyrrolidine-1-sulfonyl)phenyl]quinazolin-4-yl}-(1,3-dihydroisoindol-2-yl)methanone]
29 | 10 to 1000 nM | CCNS(=O)(=O)c1ccccc1-c1ccc2nc(N)nc(C(=O)N3Cc4ccccc4C3)c2c1 [Compound A5, 2-[2-Amino-4-(1,3-dihydroisoindole-2-carbonyl)quinazolin-6-yl]-N-ethylbenzenesulfonamide]
30 | 10 to 1000 nM | Nc1nc(C(=O)N2Cc3ccccc3C2)c2cc(-c3ccccc3S(=O)(=O)N3CCC(O)CC3)ccc2n1 [Compound A9]
31 | 10 to 1000 nM | Nc1nc(C(=O)N2Cc3ccccc3C2)c2cc(-c3ccccc3C(=O)N3CCC(CO)C3)ccc2n1 (centres unmarked) [Compound A35]
32 | 10 to 1000 nM | CN(C(=O)c1ccccc1-c1ccc2nc(N)nc(C(=O)N3Cc4ccccc4C3)c2c1)C(C)(C)C [Compound A56, 2-[2-Amino-4-(1,3-dihydroisoindole-2-carbonyl)quinazolin-6-yl]-N-tert-butyl-N-methylbenzamide]
33 | 10 to 1000 nM | CN(CCO)C(=O)c1ccccc1-c1ccc2nc(N)nc(C(=O)N3Cc4ccccc4C3)c2c1 [Compound A22]
34 | 10 to 1000 nM | CCN(CC)C(=O)c1cc(F)c(F)cc1-c1ccc2nc(N)nc(C(=O)N3Cc4ccccc4C3)c2c1 [Compound A69, 2-[2-Amino-4-(1,3-dihydroisoindole-2-carbonyl)quinazolin-6-yl]-N,N-diethyl-4,5-difluorobenzamide]
35 | 10 to 1000 nM | Nc1nc(C(=O)N2Cc3ccccc3C2)c2cc(-c3cc(F)c(F)cc3C(=O)N3CCCC3)ccc2n1 [Compound A78, {2-Amino-6-[4,5-difluoro-2-(pyrrolidine-1-carbonyl)phenyl]quinazolin-4-yl}-(1,3-dihydroisoindol-2-yl)methanone]

From US8546565B2, “Quinazolinamide derivatives” (Merck Patent Gesellschaft, priority 2008, dated 2013)
